Results on 26 molecules are retold here after patent US9730937B2, “RAF kinase modulator compounds and methods of use thereof” (AMBIT BIOSCIENCES CORPORATION, priority 2008, dated 2017).

The target of assay [1] is wild type BRAF kinase (Homo sapiens (Human), UniProt P15056). Particulars: read-out: BRAF WT Kd, class symbols.
For assay [2], the system named is panel of 290 distinct kinases (321 in the larger panel), excluding mutant variants. Particulars: kinase selectivity score, class symbols.
Description: (§1) The liganded beads were blocked with excess biotin and washed with blocking buffer (SeaBlock (Pierce), 1% BSA, 0.05% Tween 20, 1 mM DTT) to remove unbound ligand and to reduce non-specific binding. […] Test compounds were prepared as 100× stocks in DMSO and rapidly diluted into the aqueous environment. DMSO was added to control assays lacking a test compound. Primary screen interactions were performed in polypropylene 384-well plates in a final volume of 34 μL, while Kd determinations were performed in polystyrene 96-well plates in a final volume of 135 μL. […] The kinase concentration in the eluates was measured by quantitative PCR. Each kinase was tested individually against each compound. KdS were determined using eleven serial threefold dilutions. A selectivity score, which is a quantitative measure of selectivity of a compound against a panel of enzymes, may be calculated for a compound by dividing the number of enzymes for which a compound meets a set criteria, (for example, a binding constant of 100 nM or less), by the total number of enzymes tested. […] (Note, for those compounds tested in a larger kinase panel, as indicated by an asterisk (*) next to the S35 score, the divisor is 321 (i.e. the larger panel contains 321 distinct kinases, excluding mutant variants.)).
Assay [3] addresses mutant BRAF kinase (Homo sapiens (Human), UniProt P15056, V600E). As to conditions: read-out: BRAF V600E Kd, class symbols.
The target in assay [4] is RAF kinases (Homo sapiens (Human), UniProt P04049). Particulars: read-out: RAF1 Kd, class symbols.
Chain of RAF kinases (P04049 whole entry): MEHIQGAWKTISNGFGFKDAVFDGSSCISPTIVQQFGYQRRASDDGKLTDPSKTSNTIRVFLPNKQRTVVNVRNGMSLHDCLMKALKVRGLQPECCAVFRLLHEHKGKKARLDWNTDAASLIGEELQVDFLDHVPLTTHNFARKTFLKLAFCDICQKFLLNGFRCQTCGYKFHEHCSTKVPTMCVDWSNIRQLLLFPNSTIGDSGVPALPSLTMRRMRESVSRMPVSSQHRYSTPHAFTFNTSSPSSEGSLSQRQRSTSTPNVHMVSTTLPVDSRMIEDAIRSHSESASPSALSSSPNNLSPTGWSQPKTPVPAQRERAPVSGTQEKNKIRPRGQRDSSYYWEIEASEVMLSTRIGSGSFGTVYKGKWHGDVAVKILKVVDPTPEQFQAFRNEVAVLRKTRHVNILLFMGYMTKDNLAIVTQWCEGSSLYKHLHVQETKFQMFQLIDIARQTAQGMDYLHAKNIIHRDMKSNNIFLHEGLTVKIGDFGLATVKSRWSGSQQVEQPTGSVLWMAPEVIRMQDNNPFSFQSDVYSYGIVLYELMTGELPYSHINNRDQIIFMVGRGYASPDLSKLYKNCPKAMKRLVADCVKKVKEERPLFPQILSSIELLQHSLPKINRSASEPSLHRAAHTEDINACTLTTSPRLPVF
Description: as §1
Where [5] appears, read: value marked * (larger kinase panel).

Structures are written as SMILES. Counter-ions that a name gives are not always drawn. Like-named read-outs stand apart in the source and are kept apart here. Where only a bound is given, the exact number is not on record here.

Chain of wild type BRAF kinase (P15056 whole entry): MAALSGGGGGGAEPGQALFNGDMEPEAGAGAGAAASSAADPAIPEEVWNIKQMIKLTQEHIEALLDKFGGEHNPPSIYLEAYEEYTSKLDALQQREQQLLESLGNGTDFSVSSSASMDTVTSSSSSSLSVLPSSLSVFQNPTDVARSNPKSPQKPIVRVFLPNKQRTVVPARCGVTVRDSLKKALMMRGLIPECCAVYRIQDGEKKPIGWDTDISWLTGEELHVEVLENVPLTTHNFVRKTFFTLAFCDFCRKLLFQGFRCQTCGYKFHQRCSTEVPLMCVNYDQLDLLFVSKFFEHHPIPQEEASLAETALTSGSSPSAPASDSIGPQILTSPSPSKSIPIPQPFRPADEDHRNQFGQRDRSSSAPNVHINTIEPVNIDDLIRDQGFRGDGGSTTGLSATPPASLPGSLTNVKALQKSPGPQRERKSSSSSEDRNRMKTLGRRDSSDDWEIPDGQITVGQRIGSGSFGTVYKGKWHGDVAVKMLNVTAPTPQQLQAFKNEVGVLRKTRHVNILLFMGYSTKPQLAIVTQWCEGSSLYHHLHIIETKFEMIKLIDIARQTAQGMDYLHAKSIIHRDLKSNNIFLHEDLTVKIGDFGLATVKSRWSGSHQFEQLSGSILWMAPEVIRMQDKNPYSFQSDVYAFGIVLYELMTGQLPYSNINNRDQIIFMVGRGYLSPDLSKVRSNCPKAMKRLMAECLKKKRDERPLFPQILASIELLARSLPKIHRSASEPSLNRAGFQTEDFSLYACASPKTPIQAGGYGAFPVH
Chain of mutant BRAF kinase (P15056 whole entry V600E): as the sequence (P15056 whole entry) above, with V600E counted along it

Turning to `COc1cc2ncnc(Sc3cccc(NC(=O)Nc4cc(CN5CCOCC5)cc(C(F)(F)F)c4)c3)c2cc1OC` [Ex 189, 1-(3-(6,7-dimethoxyquinazolin-4-ylthio)phenyl)-3-(3-(morpholinomethyl)-5-(trifluoromethyl)phenyl)urea], the Kd in assay [1] was over 1000 nM. Also, in assay [2] (setting [5]), the S35 result is “C* (0.20 < C ≦ 0.40)”.

Turning to `COc1ccc2ncnc(Sc3cccc(NC(=O)Nc4cc(C(C)(C)C)on4)c3)c2c1` [Ex 49, 1-(5-tert-butylisoxazol-3-yl)-3-(3-(6-methoxyquinazolin-4-ylthio)phenyl)urea], the Kd in assay [1] is over 1000 nM. In addition, in assay [2] (290 distinct kinases), the S35 result is “C (0.20 < C ≦ 0.40)”.

In the case of `COc1cc2ncnc(Oc3cccc(NC(=O)Nc4cccc(C(C)C)c4)c3)c2cc1OC` [Ex 144, 1-(3-(6,7-dimethoxyquinazolin-4-yloxy)phenyl)-3-(3-isopropylphenyl)urea], the Kd in assay [3] and in assay [4] was under 250 nM throughout. The S35 entry in assay [2] (setting [5]) is recorded as “C* (0.20 < C ≦ 0.40)”.

For `COc1cc2ncnc(Oc3cccc(NC(=O)Nc4ccc(OC(F)(F)F)cc4)c3)c2cc1OC` [Ex 177, 1-(3-(6,7-dimethoxyquinazolin-4-yloxy)phenyl)-3-(4-(trifluoromethoxy)phenyl)urea], the Kd in assay [3] and in assay [4] was under 250 nM each time. Further, the S35 result in assay [2] (290 distinct kinases) is reported as “C (0.20 < C ≦ 0.40)”.

As for `COc1cc2ncnc(Oc3cccc(NC(=O)Nc4cc(C(C)(C)C)on4)c3)c2cc1OCCN1CCCCC1` [Ex 16, 1-(5-tert-butylisoxazol-3-yl)-3-(3-(7-methoxy-6-(2-(piperidin-1-yl)ethoxy)quinazolin-4-yloxy)phenyl)urea], the Kd was under 250 nM in assay [3] and over 1000 nM in assay [4]. The S35 result in assay [2] (290 distinct kinases) is reported as “C (0.20 < C ≦ 0.40)”.

In the case of `COc1cc2ncnc(Oc3cccc(NC(=O)Nc4cc(C5CCCC5)no4)c3)c2cc1OC` [Ex 163, 1-(3-cyclopentylisoxazol-5-yl)-3-(3-(6,7-dimethoxyquinazolin-4-yloxy)phenyl)urea], the Kd in assay [1] was over 1000 nM. In addition, in assay [2] (setting [5]), the S35 entry is “C* (0.20 < C ≦ 0.40)”.

With `COc1cc(OC2CCOCC2)c2c(Oc3cccc(NC(=O)Nc4cc(C(C)(C)C)on4)c3)ncnc2c1` [Ex 94, 1-(5-tert-butylisoxazol-3-yl)-3-{3-[7-methoxy-5-(tetrahydro-2H-pyran-4-yloxy)quinazolin-4-yloxy]phenyl}urea], the Kd in assay [1] was over 1000 nM. Also, the S35 result in assay [2] (290 distinct kinases) is listed as “C (0.20 < C ≦ 0.40)”.

As for `COc1cc2ncnc(Oc3cccc(NC(=O)Nc4nccc(C(F)(F)F)n4)c3)c2cc1OC` [Ex 143, 1-(3-(6,7-dimethoxyquinazolin-4-yloxy)phenyl)-3-(4-(trifluoromethyl)pyrimidin-2-yl)urea], in assay [1], the Kd is over 1000 nM. The S35 result in assay [2] (290 distinct kinases) is reported as “A (A ≦ 0.10)”.

With `COc1cc2ncnc(Sc3cccc(NC(=O)Nc4cc(C5CCCC5)on4)c3)c2cc1OC` [Ex 201, 1-(5-Cyclopentylisoxazol-3-yl)-3-(3-(6,7-dimethoxyquinazolin-4-ylthio)phenyl)urea], the Kd in assay [3] and in assay [4] was under 250 nM throughout. Besides, the S35 result in assay [2] (setting [5]) was “C* (0.20 < C ≦ 0.40)”.

Turning to `COc1cc2ncnc(Oc3cccc(NC(=O)Nc4cc(Cl)cc(C(F)(F)F)c4)c3)c2cc1OC` [Ex 140, 1-(3-chloro-5-(trifluoromethyl)phenyl)-3-(3-(6,7-dimethoxyquinazolin-4-yloxy)phenyl)urea], the Kd in assay [1] was over 1000 nM. Besides, the S35 result in assay [2] (290 distinct kinases) is given as “B (0.10 < B ≦ 0.20)”.

In the case of `COc1cc2ncnc(Oc3cccc(NC(=O)Nc4cc(C(C)(C)C)on4)c3)c2cc1O` [Ex 107, 1-(5-tert-butylisoxazol-3-yl)-3-(3-(6-hydroxy-7-methoxyquinazolin-4-yloxy)phenyl)urea], the equilibrium dissociation constant (Kd) in assay [3] and in assay [4] was under 250 nM each time. Also, the S35 entry in assay [2] (290 distinct kinases) is given as “C (0.20 < C ≦ 0.40)”.

Take `COCCOc1cc(NC(=O)Nc2cccc(Oc3ncnc4cc(OC)c(OC)cc34)c2)ccc1C(F)(F)F` [Ex 147, 1-(3-(6,7-dimethoxyquinazolin-4-yloxy)phenyl)-3-(3-(2-methoxyethoxy)-4-(trifluoromethyl)phenyl)urea]: in assay [1], the Kd was over 1000 nM. The S35 result in assay [2] (setting [5]) is given as “B* (0.10 < B ≦ 0.20)”.

On to `COc1cc2ncnc(Oc3cccc(NC(=O)Nc4ccc(C(F)(F)F)cc4)c3)c2cc1OC` [Ex 183, 1-(3-(6,7-dimethoxyquinazolin-4-yloxy)phenyl)-3-(4-(trifluoromethyl)phenyl)urea], for which the Kd in assay [3] and in assay [4] was under 250 nM each time. Moreover, the S35 result in assay [2] (setting [5]) was “C* (0.20 < C ≦ 0.40)”.

Consider `COc1cc2ncnc(Sc3cccc(NC(=O)Nc4cc(C(C)(C)F)no4)c3)c2cc1OC` [Ex 187, 1-(3-(6,7-dimethoxyquinazolin-4-ylthio)phenyl)-3-(3-(2-fluoropropan-2-yl)isoxazol-5-yl)urea], for which the Kd in assay [3] and in assay [4] was under 250 nM in each case. In addition, the S35 result in assay [2] (setting [5]) is recorded as “C* (0.20 < C ≦ 0.40)”.

Take `COc1cc2ncnc(Oc3cccc(NC(=O)Nc4cc(C(C)(C)C)on4)c3)c2cc1OC[C@@H](O)CN1CCN(C)CC1` [Ex 111, (S)-1-(5-tert-butylisoxazol-3-yl)-3-(3-(6-(2-hydroxy-3-(4methylpiperazin-1-yl)propoxy)-7-methoxyquinazolin-4-yloxy)phenyl)urea]: the Kd in assay [3] and in assay [4] was under 250 nM throughout. Further, in assay [2] (290 distinct kinases), the S35 result is on record as “D (D > 0.40)”.

As to `COc1cc2ncnc(Sc3cccc(NC(=O)Nc4cc(C(C)(C)C)on4)c3)c2cc1OCCCN1CCS(=O)(=O)CC1` [Ex 62, 1-(5-tert-butyl-isoxazol-3-yl)-3-(3-{6-[3-(1,1-dioxo-thiomorpholin-4-yl)-propoxy]-7-methoxy-quinazolin-4-ylsulfanyl}-phenyl)-urea], the Kd in assay [3] and in assay [4] was under 250 nM throughout. For the same molecule, in assay [2] (290 distinct kinases), the S35 entry is “C (0.20 < C ≦ 0.40)”.

On to `COc1cc2ncnc(Sc3cccc(NC(=O)Nc4cccc(C(C)(C)C)c4)c3)c2cc1OC` [Ex 120, 1-(3-tert-butylphenyl)-3-(3-(6,7-dimethoxyquinazolin-4-ylthio)phenyl)urea], for which the Kd in assay [3] and in assay [4] was under 250 nM each time. Also, the S35 entry in assay [2] (setting [5]) was “C* (0.20 < C ≦ 0.40)”.

For the molecule `COc1cc2ncnc(Oc3cccc(NC(=O)Nc4cccc(C(C)(C)C)c4)c3)c2cc1OC` [Ex 118, 1-(3-tert-butylphenyl)-3-(3-(6,7-dimethoxyquinazolin-4-yloxy)phenyl)urea], the Kd in assay [3] and in assay [4] was under 250 nM each time. The S35 entry in assay [2] (setting [5]) is “C* (0.20 < C ≦ 0.40)”.

With `COc1cc2ncnc(Oc3cccc(NC(=O)Nc4cc(C(C)(C)C)on4)c3)c2cc1OCCCN1CCS(=O)(=O)CC1` [Ex 26, 1-(5-tert-butyl-isoxazol-3-yl)-3-(3-{6-[3-(1,1-dioxo-thiomorpholin-4-yl)-propoxy]-7-methoxy-quinazolin-4-yloxy}-phenyl)-urea], the Kd in assay [3] and in assay [4] was under 250 nM each time. For the same molecule, the S35 entry in assay [2] (290 distinct kinases) is recorded as “D (D > 0.40)”.

Regarding `COc1cc2c(Sc3cccc(NC(=O)Nc4cc(C(C)(C)C)on4)c3)ncnc2cc1OCCCN1CCC(CO)CC1` [Ex 74, 1-(5-tert-butylisoxazol-3-yl)-3-(3-(7-(3-(4-(hydroxymethyl)piperidin-1-yl)propoxy)-6-methoxyquinazolin-4-ylthio)phenyl)urea], the Kd in assay [3] and in assay [4] was under 250 nM each time. Further, the S35 result in assay [2] (290 distinct kinases) was “D (D > 0.40)”.

As to `COc1cc2ncnc(Oc3cccc(NC(=O)Nc4cc(C(C)(C)C)on4)c3)c2cc1O[C@H]1CCN(CC(F)F)C1` [Ex 110, (S)-1-(5-tert-butylisoxazol-3-yl)-3-(3-(6-(1-(2,2-difluoroethyl)pyrrolidin-3-yloxy)-7-methoxyquinazolin-4-yloxy)phenyl)urea], the Kd in assay [3] and in assay [4] was under 250 nM throughout. Moreover, in assay [2] (290 distinct kinases), the S35 result is “C (0.20 < C ≦ 0.40)”.

As for `COc1cc2c(Oc3cccc(NC(=O)Nc4cc(C(C)(C)C)on4)c3)ncnc2cc1O[C@@H]1CCNC1` [Ex 98, (R)-1-(5-tert-butylisoxazol-3-yl)-3-(3-(6-methoxy-7-(pyrrolidin-3-yloxy)quinazolin-4-yloxy)phenyl)urea dihydrochloride], the Kd in assay [3] and in assay [4] was under 250 nM each time. Moreover, the S35 result in assay [2] (290 distinct kinases) is “C (0.20 < C ≦ 0.40)”.

Consider `COc1cc2ncnc(Sc3cccc(NC(=O)Nc4cc(C(C)(C)C)on4)c3)c2cc1OCCN1CCOCC1` [Ex 70, 1-(5-tert-butylisoxazol-3-yl)-3-(3-(7-methoxy-6-(2-morpholinoethoxy)quinazolin-4-ylthio)phenyl)urea], for which the Kd in assay [3] and in assay [4] was under 250 nM each time. In addition, in assay [2] (290 distinct kinases), the S35 result is recorded as “C (0.20 < C ≦ 0.40)”.

On to `COc1cc2c(Oc3cccc(NC(=O)Nc4cc(C(C)(C)C)on4)c3)ncnc2cc1O[C@H]1CCNC1` [Ex 96, (S)-1-(5-tert-butylisoxazol-3-yl)-3-(3-(6-methoxy-7-(pyrrolidin-3-yloxy)quinazolin-4-yloxy)phenyl)urea dihydrochloride], for which the Kd in assay [3] and in assay [4] was under 250 nM throughout. Further, the S35 result in assay [2] (290 distinct kinases) is “C (0.20 < C ≦ 0.40)”.

For the molecule `COc1cc2ncnc(Sc3cccc(NC(=O)Nc4cc(C(C)(CF)CF)on4)c3)c2cc1OC` [Ex 191, 1-[5-(1,3-difluoro-2-methylpropan-2-yl)isoxazol-3-yl]-3-[3-(6,7-dimethoxyquinazolin-4-ylthio)phenyl]urea], the Kd in assay [3] and in assay [4] was under 250 nM in each case. Further, the S35 result in assay [2] (setting [5]) is “C* (0.20 < C ≦ 0.40)”.

Consider `COc1cc2ncnc(Oc3cccc(NC(=O)Nc4cc(C(C)(CF)CF)on4)c3)c2cc1OC` [Ex 162, 1-[5-(1,3-difluoro-2-methylpropan-2-yl)isoxazol-3-yl]-3-[3-(6,7-dimethoxyquinazolin-4-yloxy)phenyl]urea], for which the Kd in assay [3] and in assay [4] was under 250 nM throughout. For the same molecule, the S35 entry in assay [2] (setting [5]) is reported as “C* (0.20 < C ≦ 0.40)”.
